Reference: PMC11372837, “Albumin-Mediated Drug Uptake by Organic Anion Transporter 1/3 Is Real: Implications for the Prediction of Active Renal Secretion Clearance” (Molecular Pharmaceutics, 2024)
“Also recorded” adds a separate entry of the source. Read-outs that look alike come from different tables or passages of the source.

Legend:
human serum albumin = human serum albumin (Homo sapiens, UniProt P02768); test: Extent of albumin binding: high throughput equilibrium dialysis (fu,inc, Kd); format: in vitro ADME; settings: mean ± SD; for fu,inc (4%) / fraction unbound at 6 h: equilibrium dialysis 37 °C 6 h; for fraction unbound at 6 h: human
human serum albumin, sequence (P02768 25-609): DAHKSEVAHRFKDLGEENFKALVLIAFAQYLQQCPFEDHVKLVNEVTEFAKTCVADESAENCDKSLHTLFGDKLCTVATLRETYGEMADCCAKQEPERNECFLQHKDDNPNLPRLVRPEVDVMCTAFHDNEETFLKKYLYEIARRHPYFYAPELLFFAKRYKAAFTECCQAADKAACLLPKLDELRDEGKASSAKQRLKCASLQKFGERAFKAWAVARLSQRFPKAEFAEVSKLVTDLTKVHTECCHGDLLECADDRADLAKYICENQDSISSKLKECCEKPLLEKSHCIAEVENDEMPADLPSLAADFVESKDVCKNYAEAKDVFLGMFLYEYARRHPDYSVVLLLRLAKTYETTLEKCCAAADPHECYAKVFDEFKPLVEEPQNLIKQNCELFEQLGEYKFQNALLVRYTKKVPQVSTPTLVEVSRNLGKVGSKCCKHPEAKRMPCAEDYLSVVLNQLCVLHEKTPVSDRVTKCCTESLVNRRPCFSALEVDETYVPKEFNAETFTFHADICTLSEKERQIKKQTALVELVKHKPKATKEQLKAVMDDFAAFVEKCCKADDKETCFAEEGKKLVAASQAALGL
Protocol: Briefly, cellulose membranes with MWCO of 12–14 kDa were submerged in distilled water for 1 h, followed by 20% ethanol/distilled water for at least 20 min. Prior to the start of the experiment, cellulose membranes were rinsed in distilled water and submerged in blank DPBS for 15 min. The HTDialysis device was assembled according to the manufacturer’s instructions (https://www.htdialysis.com). Blank DPBS was first added to the receiver side of the dialysis membranes, followed by DPBS spiked with HSA and the OAT1/3 substrate to the donor side. Each HSA concentration was tested in triplicates. The HTDialysis device was sealed with an adhesive sealing film and incubated in a water bath at 37 °C for 6 h shaken at 150 rpm. Once the assay was completed, aliquots from both receiver and donor wells were transferred to a 96-well plate and stored at −80 °C until analysis. DPBS spiked with the OAT1/3 substrate from both before and after incubation was stored to assess the recovery and stability of the samples. To prepare the sample for analysis, donor and receiver samples were matrix-matched and quenched with ice-cold acetonitrile containing an internal standard (0.5 μM gemfibrozil or 0.05 μM buspirone).

OAT1 [1] = test: Observed in vivo (clinical) renal, secretion and intrinsic secretion clearance; settings: human, plasma
[2] = as above; settings: in vivo; for CLint,sec Observed: back-calculated from clinical data
OAT1 [3] = target: T1, OAT1 (Homo sapiens, UniProt Q4U2R8); test: OAT1 uptake study in ciPTEC-OAT1
T1 sequence (Q4U2R8 1-563): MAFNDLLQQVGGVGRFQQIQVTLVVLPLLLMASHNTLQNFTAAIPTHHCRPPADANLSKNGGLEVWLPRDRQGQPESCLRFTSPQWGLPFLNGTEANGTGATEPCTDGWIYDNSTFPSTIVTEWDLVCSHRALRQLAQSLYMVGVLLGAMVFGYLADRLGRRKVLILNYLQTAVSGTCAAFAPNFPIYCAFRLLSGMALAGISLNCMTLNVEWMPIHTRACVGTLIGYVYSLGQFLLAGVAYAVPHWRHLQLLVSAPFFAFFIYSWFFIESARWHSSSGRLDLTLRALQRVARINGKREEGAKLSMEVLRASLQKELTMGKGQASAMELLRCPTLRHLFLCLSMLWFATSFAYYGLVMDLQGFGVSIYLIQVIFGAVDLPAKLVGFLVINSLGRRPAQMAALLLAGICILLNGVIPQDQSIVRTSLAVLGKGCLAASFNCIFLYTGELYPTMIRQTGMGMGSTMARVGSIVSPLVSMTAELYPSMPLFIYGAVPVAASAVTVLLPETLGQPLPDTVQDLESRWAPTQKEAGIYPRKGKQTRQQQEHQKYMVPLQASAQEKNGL

OAT1/3 [4] = test: Bottom-up IVIVE of CLint,sec, CLsec and CLr, relative expression factor (REF) approach; set-up: species or system human; settings: REF approach
Text: (§1) The relative expression and relative activity factor (REF and RAF) are unitless scalers that account for in vivo versus in vitro differences in the abundance and activity of OAT1/3 and are used for IVIVE of in vitro CLint,u,active. REF was derived from the OAT1/3 expression ratio between the in vivo human kidney cortex to the in vitro ciPTEC-OAT1/3, as shown in eq 7: [drawing 8] 7 Absolute abundance of OAT1 and OAT3 in the human kidney cortex was previously quantified by our group using the filter-aided sample preparation protocol and global proteomic analysis.[44]

[5] = in vivo, plasma renal clearance, clinical data; cited from earlier work
OAT3 [6] = target: T2, OAT3 (Homo sapiens, UniProt Q8TCC7); test: OAT3 uptake study in ciPTEC-OAT3; settings: for Vb,max OAT3, Active and Passive Uptake: eq 4 fitted to CLint,u; for Vb,max OAT3, Active and Passive Uptake / Vb,max OAT3, Active Uptake Only: mean ± S.D.; for Vb,max OAT3, Active Uptake Only: eq 4 fitted to CLint,u,active
T2 sequence (Q8TCC7 1-542): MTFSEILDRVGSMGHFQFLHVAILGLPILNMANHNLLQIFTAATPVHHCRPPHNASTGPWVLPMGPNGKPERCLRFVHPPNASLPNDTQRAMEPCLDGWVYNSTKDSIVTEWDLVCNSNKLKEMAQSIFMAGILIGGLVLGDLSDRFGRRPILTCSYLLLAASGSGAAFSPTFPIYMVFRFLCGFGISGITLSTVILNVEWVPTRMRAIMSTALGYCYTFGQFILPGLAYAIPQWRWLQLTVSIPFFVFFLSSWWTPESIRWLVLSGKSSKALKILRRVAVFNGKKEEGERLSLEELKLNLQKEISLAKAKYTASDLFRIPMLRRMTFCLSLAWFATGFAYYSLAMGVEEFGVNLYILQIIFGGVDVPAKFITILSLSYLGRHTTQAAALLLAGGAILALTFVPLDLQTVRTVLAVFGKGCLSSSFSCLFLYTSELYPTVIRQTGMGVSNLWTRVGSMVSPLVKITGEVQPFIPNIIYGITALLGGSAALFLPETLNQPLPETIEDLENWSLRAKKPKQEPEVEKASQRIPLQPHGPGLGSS

OAT3 [7] = test: clinical; settings: human
[8] = human, in vivo
OAT1/3 [9] = test: Bottom-up IVIVE of CLint,sec, CLsec and CLr, relative activity factor (RAF) approach; set-up: species or system human
Text: as §1

[10] = 1% human serum albumin in DPBS, 1% HSA, read-out: fu,inc (1%)
[11] = 4% HSA in DPBS, 4% HSA, read-out: fu,inc (4%)

| SMILES | fu,inc (4%) (human serum albumin; 4% HSA) | fraction unbound at 6 h (human serum albumin; [10]) | fraction unbound at 6 h (human serum albumin; [11]) | CLint,sec Observed [2] | CLint,sec Predicted 0% HSA (OAT1/3 [4]) | CLint,sec Predicted 1% HSA (OAT1/3 [4]) | CLint,sec Predicted 4% HSA (OAT1/3 [4]) | CLsec Predicted 0% HSA (OAT1/3 [4]) | CLsec Predicted 1% HSA (OAT1/3 [4]) | CLsec Predicted 4% HSA (OAT1/3 [4]) | CLr Observed [5] | CLsec Observed [8] | Vb,max OAT3, Active and Passive Uptake (OAT3 [6]) | Vb,max OAT3, Active Uptake Only (OAT3 [6]) | other results |
| --- | --- | --- | --- | --- | --- | --- | --- | --- | --- | --- | --- | --- | --- | --- | --- |
| Nc1ncnc2c1ncn2CCOCP(=O)(O)O [adefovir] | 0.977 ± 0.062 | 0.999 ± 0.019 | > 0.95 | 10.8 L/h | 42.9 L/h | 57.8 L/h | 44.7 L/h | 21.3 L/h | 25.1 L/h | 21.8 L/h | 14.2 L/h |  |  |  | microsomal CLint (OAT1 [1]): 35.2 µL/min/mg; CLsec Observed ([2]; plasma secretion clearance): 7.82 L/h; Effect of HSA on OAT1 uptake / CLint,u,active (OAT1 [3]; 1 and 4% HSA vs control): no effect; also recorded: did not show any significant change; also recorded: absence of any change; Vb,max OAT1, Active and Passive Uptake (OAT1 [3]; eq 4 fitted to CLint,u, mean ± S.D.): -1083 ± 194000 pmol/min/mg; Vb,max OAT1, Active Uptake Only (OAT1 [3]; eq 4 fitted to CLint,u,active, Kd,m fixed from OAT3 data, mean ± S.D.): 3055 ± 188000 pmol/min/mg; OAT3 substrate status (uptake in ciPTEC-OAT3) (OAT3 [6]; control vs probenecid 300 μM): not an OAT3 substrate |
| CCC(CC)O[C@@H]1C=C(C(=O)O)C[C@H](N)[C@H]1NC(C)=O [oseltamivir carboxylate] | 0.983 ± 0.018 | 0.973 ± 0.039 | > 0.95 |  |  |  |  |  |  |  | 15.6 L/h | 8.29 L/h | -1150 ± 2660 pmol/min/mg | -1120 ± 2640 pmol/min/mg | microsomal CLint (OAT3 [7]): 36.2 µL/min/mg; CLint,sec Observed [8]: 11.7 L/h; Effect of HSA on OAT3 uptake / CLint,u,active (OAT3 [6]; 1 and 4% HSA vs control): no effect; also recorded: did not show any significant change; also recorded: absence of any change |
| O=C(NC[C@H]1CN(c2ccc(N3CCOCC3=O)cc2)C(=O)O1)c1ccc(Cl)s1 [rivaroxaban] |  | 0.217 ± 0.006 | 0.096 ± 0.007 | 41.2 L/h | 6.78 L/h | 41.7 L/h | 67.0 L/h | 0.48 L/h | 2.79 L/h | 4.32 L/h | 3.17 L/h | 2.63 L/h | 723 ± 216 pmol/min/mg | 714 ± 201 pmol/min/mg | Kd (human serum albumin; estimated using eq 3 from measured fu,inc): 55 ± 4.3 µM; CLint,sec Predicted 0% HSA (OAT1/3 [9]): 34.1 L/h; CLint,sec Predicted 1% HSA (OAT1/3 [9]): 210 L/h; CLint,sec Predicted 4% HSA (OAT1/3 [9]): 337.7 L/h; CLsec Predicted 0% HSA (OAT1/3 [9]): 2.32 L/h; CLsec Predicted 1% HSA (OAT1/3 [9]): 11.1 L/h; CLsec Predicted 4% HSA (OAT1/3 [9]): 15.4 L/h; OAT1 substrate status (uptake in ciPTEC-OAT1) (OAT1 [3]; control vs probenecid 300 μM): did not show any appreciable uptake; ratio of CLint,u,active (R) (HSA/control) 1% (OAT3 [6]; OAT3, 1% HSA vs control): 6.44 ± 2.61; ratio of CLint,u,active (R) (HSA/control) 4% (OAT3 [6]; OAT3, 4% HSA vs control): 10.0 ± 2.2 |
